Data from patent publication US20110166078A1, “OLIGOSACCHARIDE COMPOUNDS FOR USE IN MOBILISING STEM CELLS” (ENDOTIS PHARMA, priority 2008, published 2011).

Test system: hematopoietic stem cells (LSK cells) in blood
Assay: Hematopoietic stem cell mobilisation, sequential G-CSF, AMD3100 and compound 240
Assay type: in vivo
Settings: compound 240 i.v. 15 mg/kg 30 min after AMD3100 s.c. 5 mg/kg, after G-CSF 2.5 μg s.c.; C57BL/6 mice; FIG. 5
Protocol: During cancer treatment, patients receive injections of a cytokine (G-CSF) mobilising stem cells. These stem cells are then collected from the peripheral blood using an apheresis machine. Apheresis is usually performed for several days until enough stem cells have been collected to support treatment with high-dose chemotherapy and/or radiotherapy. In the experiments of the present invention, different doses (5, 15 and 30 mg/kg body weight (bw)) and administration routes (intraperitoneal, intravenous and subcutaneous) were tested along time course experiments in mice (30 min, 1 h, 3 h and 5 h).
C57BL/6 mice (8-10 weeks old, obtained from Jackson Laboratory, USA) were housed 15 days in the CEA/DSV/iRCM animal facilities. Animal care was in accordance with French Government procedures (Services Veterinaires de la Sante et de la Production Animale, Ministere de l'Agriculture, France).
i) intravenously: Anesthetized mice were placed on their left side. Injection of 100 μl of compound was performed with insulin syringe into the retro-orbital sinus of the right eye of mice. […]
Two months aged-C57BL/6 mice were injected s.c. with 2.5 μg of G-CSF twice a day for 2 days. […] White blood cells were counted and labeled with lineage-PE-Cy7 (L), Sca-PE (S), and cKit-APC (K) antibodies for data acquisition by cytometry. […]

Compound: C#CCCCOC1OC(COS(=O)(=O)[O-])C(OC2OC(C(=O)[O-])C(OC3OC(COS(=O)(=O)[O-])C(OC4OC(C(=O)[O-])C(OC5OC(COS(=O)(=O)[O-])C(OC6OC(C(=O)[O-])C(OC7OC(COS(=O)(=O)[O-])C(OC8OC(C(=O)[O-])C(OCc9ccccc9)C(OCc9ccccc9)C8OS(=O)(=O)[O-])C(OCc8ccccc8)C7NS(=O)(=O)[O-])C(OCc7ccccc7)C6OS(=O)(=O)[O-])C(OCc6ccccc6)C5NS(=O)(=O)[O-])C(OCc5ccccc5)C4OS(=O)(=O)[O-])C(OCc4ccccc4)C3NS(=O)(=O)[O-])C(OCc3ccccc3)C2OS(=O)(=O)[O-])C(OCc2ccccc2)C1NS(=O)(=O)[O-].[Na+].[Na+].[Na+].[Na+].[Na+].[Na+].[Na+].[Na+].[Na+].[Na+].[Na+].[Na+].[Na+].[Na+].[Na+].[Na+] (stereo not shown) [Compound 240]
- HSCs mobilized, times more than with G-CSF+AMD3100 combination: About 3 times
